Source: patent publication US12012374B2, “Agonists of ROR GAMMAt” (BRISTOL-MYERS SQUIBB COMPANY, priority 2019, dated 2024)

Target: T1, human RORgT (Homo sapiens, UniProt P51449)
T1 construct: expressed in transfected cells; host or cells: engineered Jurkat cells (Jurkat pEx/Gal/hRORγ CLBD/HYG pG5luc/blast)
T1 sequence (P51449 267-516): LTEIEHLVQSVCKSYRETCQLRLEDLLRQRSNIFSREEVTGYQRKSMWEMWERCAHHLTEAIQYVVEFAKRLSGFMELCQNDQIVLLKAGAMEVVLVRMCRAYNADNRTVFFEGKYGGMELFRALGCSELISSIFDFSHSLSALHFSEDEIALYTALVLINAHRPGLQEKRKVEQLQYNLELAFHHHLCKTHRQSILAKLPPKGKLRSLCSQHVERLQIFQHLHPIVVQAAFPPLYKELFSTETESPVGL
Assay: RORgT Gal4 Luciferase Reporter Gene Assay
Type: cell-based
Settings: engineered Jurkat cells overexpressing RORgT (LBD or full length) fused with Gal4 Luc reporter; 18 hours incubation

First: O=S(=O)(c1ccc(F)cc1)C1(c2ccc(OCc3ccccc3F)cc2)CCCC1 [Example 7, 1-[1-(4-fluorobenzenesulfonyl)cyclopentyl]-4-[(2-fluorophenyl)methoxy]benzene]
Second: O=S(=O)(c1ccccc1)C1(c2ccc(OCc3ccccc3F)cc2)CCCC1 [Example 13, 1-[1-(benzenesulfonyl)cyclopentyl]-4-[(2-fluorophenyl)methoxy]benzene]
The EC50 of the first is 3.6-fold higher: 723 nM for the first, 203 nM for the second.

`NC(=O)N1CCC(C(=O)N2CCC(c3ccc(OCc4c(Cl)cccc4Cl)cc3)(S(=O)(=O)c3ccccc3)C2)CC1` (stereo not shown) [Example 25, 4-[3-(benzenesulfonyl)-3-{4-[(2,6-dichlorophenyl)methoxy]phenyl}pyrrolidine-1-carbonyl]piperidine-1-carboxamide] and `O=C(C1CCS(=O)(=O)CC1)N1CCC(c2ccc(OCc3ccccc3Cl)cc2)(S(=O)(=O)c2ccccc2)C1` (stereo not shown) [Example 28, 4-[3-(benzenesulfonyl)-3-{4-[(2-chlorophenyl)methoxy]phenyl}pyrrolidine-1-carbonyl]-1λ^6-thiane-1,1-dione] are within 1.5-fold of each other in EC50: 267 nM for the first, 187 nM for the second.

Going from `O=C(C1CCS(=O)(=O)CC1)N1CCC(c2ccc(OCc3c(F)ccc(F)c3Cl)cc2)(S(=O)(=O)c2ccccc2)C1` (stereo not shown) [Example 27, 4-[3-(benzenesulfonyl)-3-{4-[(2-chloro-3,6-difluorophenyl)methoxy]phenyl}pyrrolidine-1-carbonyl]-1λ^6-thiane-1,1-dione] to `O=C(C1CCS(=O)(=O)CC1)N1CCC(c2ccc(OCc3ccc(F)cc3Cl)cc2)(S(=O)(=O)c2ccccc2)C1` (stereo not shown) [Example 31, 4-[3-(benzenesulfonyl)-3-{4-[(2-chloro-4-fluorophenyl)methoxy]phenyl}pyrrolidine-1-carbonyl]-1λ^6-thiane-1,1-dione], the EC50 rises from 109 nM to 343 nM (3.1-fold).

Compared with `O=C(N1CC[C@](c2ccc(OCc3c(F)cccc3C(F)(F)F)cc2)(S(=O)(=O)c2ccc(F)cc2)C1)C1(O)CCS(=O)(=O)CC1` [Example 43, 4-[(3R)-3-(4-{[2-fluoro-6-(trifluoromethyl)phenyl]methoxy}phenyl)-3-(4-fluorobenzenesulfonyl)pyrrolidine-1-carbonyl]-4-hydroxy-1λ^6-thiane-1,1-dione], `O=C(C1CCS(=O)(=O)C1)N1CCC(c2ccc(OCc3ccccc3)cc2)(S(=O)(=O)c2ccc(F)cc2)C1` (stereo not shown) [Example 19, 3-{3-[4-(benzyloxy)phenyl]-3-(4-fluorobenzenesulfonyl)pyrrolidine-1-carbonyl}-1λ^6-thiolane-1,1-dione] is 48-fold higher in EC50: 14 nM for the first, 672 nM for the second.

Going from `O=C(Cn1ccnn1)N1CCC(c2ccc(OCc3ccccc3)cc2)(S(=O)(=O)c2ccc(F)cc2)C1` (stereo not shown) [Example 17, 1-{3-[4-(benzyloxy)phenyl]-3-(4-fluorobenzenesulfonyl)pyrrolidin-1-yl}-2-(1H-1,2,3-triazol-1-yl)ethan-1-one] to `O=S(=O)(c1ccccc1)C1(c2ccc(OCc3ccc(F)cc3)cc2)CCCC1` [Example 12, 1-[1-(benzenesulfonyl)cyclopentyl]-4-[(4-fluorophenyl)methoxy]benzene], the EC50 falls from 526 nM to 87 nM (6-fold).

Compared with `O=S(=O)(c1ccccc1)C1(c2ccc(OCc3cccc(F)c3)cc2)CCCC1` [Example 11, 1-[1-(benzenesulfonyl)cyclopentyl]-4-[(3-fluorophenyl)methoxy]benzene], `O=S(=O)(c1ccc(Cl)cc1)C1(c2ccc(OCc3ccccc3)cc2)CCCC1` [Example 9, 1-(benzyloxy)-4-[1-(4-chlorobenzenesulfonyl)cyclopentyl]benzene] is 1.9-fold lower in EC50: 397 nM for the first, 212 nM for the second. The second is the more potent here.

`O=C(C1CCS(=O)(=O)CC1)N1CCC(c2ccc(OCc3ccccc3)cc2)(S(=O)(=O)c2cccc(C(F)(F)F)c2)C1` (stereo not shown) [Example 21, 4-{3-[4-(benzyloxy)phenyl]-3-[3-(trifluoromethyl)benzenesulfonyl]pyrrolidine-1-carbonyl}-1λ^6-thiane-1,1-dione] gave an EC50 of 462 nM.
